Molecules are shown by their SMILES. Like-named read-outs stand apart in the source and are kept apart here.

One experiment addresses human FABP5 (huFABP5) (Homo sapiens (Human), UniProt Q01469). Kind of experiment: Tb TR-FRET assay, binding of Bodipy labeled fatty acid to His6 tagged huFABP5. To be noted: read-out: IC50 h-fabp5-ecoli-r. Background: Time-resolved FRET reads energy transfer from a long-lived donor to a nearby acceptor.
A further experiment addresses human FABP4 (huFABP4) (Homo sapiens (Human), UniProt P15090). Briefly: Tb TR-FRET assay, binding of Bodipy labeled fatty acid to His6 tagged huFABP4. To be noted: read-out: IC50 h-fabp4-ecoli-r.
The mark [1] stands for this setting: 50 nM FABP protein, […] Bodipy labeled fatty acid.

Chain of human FABP4 (huFABP4) (P15090 whole entry): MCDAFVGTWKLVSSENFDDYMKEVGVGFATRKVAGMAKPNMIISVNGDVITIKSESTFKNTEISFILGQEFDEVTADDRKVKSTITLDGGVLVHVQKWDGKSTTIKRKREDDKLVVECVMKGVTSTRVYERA
Chain of human FABP5 (huFABP5) (Q01469 whole entry): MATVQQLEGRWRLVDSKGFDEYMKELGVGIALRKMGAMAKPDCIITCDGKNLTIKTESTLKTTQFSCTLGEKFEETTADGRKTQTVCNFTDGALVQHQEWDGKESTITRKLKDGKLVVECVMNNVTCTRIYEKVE

The term IC50 denotes the concentration needed to halve the response being measured. As for `Cc1ccccc1-c1ccc(Cl)cc1NC(=O)N1CCC[C@@H]1C(=O)O` [Example 61, (R)-1-(4-chloro-2′-methylbiphenyl-2-ylcarbamoyl)pyrrolidine-2-carboxylic acid], the IC50 at human FABP5 (huFABP5) (setting [1]) was greater than 50 µM; at human FABP4 (huFABP4) (setting [1]), 2750 nM.

As to `O=C(O)[C@H]1CCN1C(=O)Nc1cc(Cl)ccc1-c1ccc(F)cc1` [Example 29, (R)-1-(4-chloro-4′-fluorobiphenyl-2-ylcarbamoyl)azetidine-2-carboxylic acid], the values for the IC50 at human FABP5 (huFABP5) (setting [1]) and on human FABP4 (huFABP4) (setting [1]) were greater than 50 µM and 30 nM, respectively.

Turning to `O=C(Nc1ccccc1-c1ccccc1)N1CCCC1(C(=O)O)c1ccccc1` (stereo not shown) [Example 6, 1-(Biphenyl-2-ylcarbamoyl)-2-phenyl-pyrrolidine-2-carboxylic acid], the IC50 is greater than 50 µM on human FABP5 (huFABP5) (setting [1]) and 620 nM at human FABP4 (huFABP4) (setting [1]).

For `CC1(C(=O)O)CCCN1C(=O)Nc1ccccc1-c1ccccc1` (stereo not shown) [Example 15, 1-(biphenyl-2-ylcarbamoyl)-2-methylpyrrolidine-2-carboxylic acid], the IC50 on human FABP5 (huFABP5) (setting [1]) is greater than 50 µM; on human FABP4 (huFABP4) (setting [1]) it was 860 nM.

Take `O=C(O)[C@H]1CCCN1C(=O)Nc1cc(Cl)ccc1-c1csc2ccccc12` [Example 53, (R)-1-(2-(benzo[b]thiophen-3-yl)-5-chlorophenylcarbamoyl)pyrrolidine-2-carboxylic acid]: the IC50 was found to be 42.2 µM at human FABP5 (huFABP5) (setting [1]) and 340 nM on human FABP4 (huFABP4) (setting [1]).

As for `O=C(O)[C@H]1CCN1C(=O)Nc1cc(Cl)ccc1-c1ccccc1` [Example 12, (R)-1-(4-chlorobiphenyl-2-ylcarbamoyl)azetidine-2-carboxylic acid], the IC50 at human FABP5 (huFABP5) (setting [1]) is greater than 50 µM; on human FABP4 (huFABP4) (setting [1]) it was 20 nM.

Take `O=C(O)[C@H]1CCCN1C(=O)Nc1cc(F)cc(F)c1-c1ccccc1` [Example 14, (R)-1-(4,6-difluorobiphenyl-2-ylcarbamoyl)pyrrolidine-2-carboxylic acid]: the IC50 on human FABP5 (huFABP5) (setting [1]) was greater than 6.86 µM; at human FABP4 (huFABP4) (setting [1]), 310 nM.

Regarding `COc1ccc(-c2ccc(Cl)cc2NC(=O)N2CCC[C@@H]2C(=O)O)cc1` [Example 60, (R)-1-(4-chloro-4′-methoxybiphenyl-2-ylcarbamoyl)pyrrolidine-2-carboxylic acid], the IC50 was greater than 50 µM on human FABP5 (huFABP5) (setting [1]) and 3450 nM at human FABP4 (huFABP4) (setting [1]).

Turning to `O=C(O)[C@H]1CCCN1C(=O)Nc1c(-c2ccccc2)sc2ncccc12` [Example 22, (R)-1-(2-phenylthieno[2,3-b]pyridin-3-ylcarbamoyl)pyrrolidine-2-carboxylic acid], the IC50 at human FABP5 (huFABP5) (setting [1]) is greater than 50 µM; on human FABP4 (huFABP4) (setting [1]), 1660 nM.

For `O=C(O)[C@H]1CCCN1C(=O)Nc1cc(C(F)(F)F)ccc1-c1ccccc1` [Example 13, (R)-1-(4-(trifluoromethyl)biphenyl-2-ylcarbamoyl)pyrrolidine-2-carboxylic acid], the IC50 at human FABP5 (huFABP5) (setting [1]) was greater than 50 µM; at human FABP4 (huFABP4) (setting [1]), 3950 nM.

Consider `O=C(O)[C@H]1CCN1C(=O)Nc1cc(Cl)ccc1-c1cccc(F)c1` [Example 38, (R)-1-(4-chloro-3′-fluorobiphenyl-2-ylcarbamoyl)azetidine-2-carboxylic acid], for which the IC50 at human FABP5 (huFABP5) (setting [1]) was greater than 50 µM; on human FABP4 (huFABP4) (setting [1]), 30 nM.

Take `O=C(O)[C@H]1CCCN1C(=O)Nc1cc(Cl)cc(C2=CCCCC2)c1-c1ccccc1` [Example 26, (R)-1-[4-chloro-6-(cyclohexen-1-yl)-biphenyl-2-ylcarbamoyl]pyrrolidine-2-carboxylic acid]: the IC50 turned out to be 0.07 µM on human FABP5 (huFABP5) (setting [1]) and 530 nM at human FABP4 (huFABP4) (setting [1]).

As to `O=C(O)[C@@H]1[C@H]2C[C@H]2CN1C(=O)Nc1ccccc1-c1ccccc1` (racemic) [Example 9, (1SR,2SR,5RS)-3-(Biphenyl-2-ylcarbamoyl)-3-aza-bicyclo[3.1.0]hexane-2-carboxylic acid], the IC50 was greater than 50 µM at human FABP5 (huFABP5) and 9100 nM at human FABP4 (huFABP4).

Regarding `O=C(O)[C@H]1CCCN1C(=O)Nc1cc(Cl)ccc1-c1ccsc1` [Example 52, (R)-1-(5-chloro-2-(thiophen-3-yl)phenylcarbamoyl)pyrrolidine-2-carboxylic acid], the IC50 at human FABP5 (huFABP5) (setting [1]) was greater than 10.4 µM; on human FABP4 (huFABP4) (setting [1]), 60 nM.

In the case of `O=C(O)C1CCCCN1C(=O)Nc1ccccc1-c1ccccc1` (stereo not shown) [Example 1, 1-(Biphenyl-2-ylcarbamoyl)-piperidine-2-carboxylic acid], the figures for the IC50 on human FABP5 (huFABP5) (setting [1]) and at human FABP4 (huFABP4) (setting [1]) were greater than 50 µM and 8060 nM, respectively.

In the case of `O=C(O)[C@H]1CCCN1C(=O)Nc1c(-c2ccccc2)sc2ccccc12` [Example 21, (R)-1-(2-phenylbenzo[b]thiophen-3-ylcarbamoyl)pyrrolidine-2-carboxylic acid], the IC50 was greater than 50 µM at human FABP5 (huFABP5) (setting [1]) and 670 nM on human FABP4 (huFABP4) (setting [1]).

For `O=C(O)[C@H]1CCN1C(=O)Nc1cc(Cl)ccc1-c1ccc(F)cc1F` [Example 63, (R)-1-(4-chloro-2′,4′-difluorobiphenyl-2-ylcarbamoyl)azetidine-2-carboxylic acid], the IC50 was greater than 50 µM on human FABP5 (huFABP5) (setting [1]) and 30 nM at human FABP4 (huFABP4) (setting [1]).

Take `O=C(O)[C@H]1CCCN1C(=O)Nc1ccccc1Cc1ccccc1` [Example 4, (R)-1-(2-benzylphenylcarbamoyl)pyrrolidine-2-carboxylic acid]: the IC50 was greater than 50 µM at human FABP5 (huFABP5) (setting [1]) and 3340 nM on human FABP4 (huFABP4) (setting [1]).

Consider `N#Cc1ccc(-c2ccccc2)c(NC(=O)N2CCC[C@@H]2C(=O)O)c1` [Example 20, (R)-1-(4-cyanobiphenyl-2-ylcarbamoyl)pyrrolidine-2-carboxylic acid], for which the IC50 was greater than 50 µM at human FABP5 (huFABP5) (setting [1]) and 10500 nM on human FABP4 (huFABP4) (setting [1]).

Consider `O=C(O)[C@H]1CCCN1C(=O)Nc1cc(Cl)cc(-c2ccccc2)c1-c1ccccc1` [Example 19, (R)-1-(5′-Chloro-[1,1′;2′,1″]terphenyl-3′-ylcarbamoyl)-pyrrolidine-2-carboxylic acid], for which the values for the IC50 at human FABP5 (huFABP5) (setting [1]) and at human FABP4 (huFABP4) (setting [1]) were 1.22 µM and 500 nM, respectively.

`O=C(O)[C@H]1CCCN1C(=O)Nc1cc(OC(F)(F)F)ccc1-c1ccccc1` [Example 17, (R)-1-(4-(trifluoromethoxy)biphenyl-2-ylcarbamoyl)pyrrolidine-2-carboxylic acid]: the figures for the IC50 at human FABP5 (huFABP5) (setting [1]) and at human FABP4 (huFABP4) (setting [1]) were greater than 50 µM and 5710 nM, respectively.

For the compound `O=C(O)[C@H]1CCCN1C(=O)Nc1cc(Cl)ccc1-c1ccncc1` [Example 58, (R)-1-(5-chloro-2-(pyridin-4-yl)phenylcarbamoyl)pyrrolidine-2-carboxylic acid], the IC50 at human FABP5 (huFABP5) (setting [1]) was greater than 50 µM; at human FABP4 (huFABP4) (setting [1]) it was 2000 nM.

As to `O=C(O)[C@H]1CCCN1C(=O)Nc1cc(Cl)ccc1-c1cccc(Cl)c1` [Example 55, (R)-1-(3′,4-dichlorobiphenyl-2-ylcarbamoyl)pyrrolidine-2-carboxylic acid], the IC50 is greater than 50 µM on human FABP5 (huFABP5) (setting [1]) and 770 nM at human FABP4 (huFABP4) (setting [1]).

With `O=C(O)[C@H]1CCCN1C(=O)Nc1cc(Cl)ccc1Oc1ccccc1` [Example 5, (R)-1-(5-chloro-2-phenoxyphenylcarbamoyl)pyrrolidine-2-carboxylic acid], the figures for the IC50 at human FABP5 (huFABP5) (setting [1]) and on human FABP4 (huFABP4) (setting [1]) were greater than 50 µM and 7410 nM, respectively.

Take `NC(=O)c1cccc(-c2ccc(Cl)cc2NC(=O)N2CCC[C@@H]2C(=O)O)c1` [Example 56, (R)-1-(3′-carbamoyl-4-chlorobiphenyl-2-ylcarbamoyl)pyrrolidine-2-carboxylic acid]: the IC50 on human FABP5 (huFABP5) (setting [1]) is greater than 50 µM; on human FABP4 (huFABP4) (setting [1]) it was 11100 nM.

With `O=C(O)[C@H]1CCCN1C(=O)Nc1ccccc1Oc1ccccc1` [Example 3, (R)-1-(2-phenoxyphenylcarbamoyl)pyrrolidine-2-carboxylic acid], the results for the IC50 on human FABP5 (huFABP5) (setting [1]) and on human FABP4 (huFABP4) (setting [1]) were greater than 50 µM and 11700 nM, respectively.

The values are drawn from patent US9708340B2, “Urea derivatives and their use as fatty-acid binding protein (FABP) inhibitors” (Hoffmann-La Roche Inc., priority 2013, dated 2017).
